Reference: EP2926811A1, “ARTEMETHER-CONTAINING PHARMACEUTICAL COMPOSITION, PREPARATION, AND USE THEREOF” (Kunming Pharmaceutical Corp., priority 2012, dated 2014)
Read-outs that look alike come from different tables or passages of the source.

Key:
Assay type in all cases: cell-based
[1] = system: A549 cells; test: modified MTT method, proliferation of A549 cells; conditions: Homo sapiens, read-out: IC50 on the growth of A549 cells
Protocol: (§1) Five test concentrations 2, 10, 50, 250 and 500 µM were set for each of five derivatives of artemisinin, artemether drug substance, artemisinin, dihydroartemisinin, artesunate were dissolved with dimethyl sulfoxide (DMSO), while the lyophilized powder of artemether was dissolved with normal saline (N.S.), followed by addition of a certain amount of RPMI 1640 complete culture solution to formulate a high-concentration solution, and each of the low-concentration solutions was formulated by proportionate dilution from the high-concentration solution.
(§2) The concentrations of DMSO contained in the solutions at the two relatively high concentrations 500 and 250 µM for the artemether drug substance, artemisinin, dihydroartemisinin, artesunate, used as solvent controls, were formulated with […] culture solution, at which time the test concentrations of DMSO were 1% and 0.5%. The concentrations of the excipients contained in the solutions at the two relatively high concentrations 500 and 250 µM for the preparation of lyophilized powder of artemether were used as solvent controls.
(§3) The positive control was an anti-cancer drug adriamycin (ADM), which was set at three test concentrations (final concentrations) of 0.1, 1 and 10 µg/ml. To ADM stock solution (1 mg/ml) a certain amount of PRMI 1640 complete culture solution was added, to formulate a high-concentration solution, and each of the low-concentration solutions were formulated by proportionate dilutions from the high-concentration solution.
(§4) HL-60: (human promyelocytic leukemia cell line); K562 (human chronic myelocytic leukemia cell line); HT-29 (human colon cancer cell line); PC-3 (human prostate cancer cell line); A549 (human non-small cell lung cancer cell line); MKN-28 (human gastric cancer cell line); Hep2 (human laryngeal cancer cell line), all of which were purchased from Cell Bank of Shanghai Institutes for Biological Sciences, the Chinese Academy of Sciences.
(§5) Influence of the five test samples on the proliferation of 7 human tumor cell lines was determined via a modified MTT method.
(§6) Cells in logarithmic growth phase were taken, adjusted to a certain concentration and then added into a 96 well culture plate. After culture of adherent cells for a period until adherence, the test samples were added; and for suspension cells, the test samples were added after inoculation. 5 test concentrations 2, 10, 50, 250 and 500 µM were set, with 3 parallel wells for each concentration, 10 µl/well; the solvent controls were 0.5% and 1% of isovolumetric DMSO, and the positive controls was ADM at 3 concentrations 0.1, 1 and 10 µg/ml. The samples were loaded followed by culture for a period of time in an incubator at 37°C, 5% CO2, followed by addition of MTT (5 mg/ml) at 20 µl/well, and continued to be cultured for a period of time and added with a three-combined solution [10% SDS - 5% isobutanol - 0.012 mol/L HCl (W/V/V)]. After dissolving in uniformity, it was continued to be placed in the incubator at 37°C, 5% CO2 for a period of time, and the OD value of each well was determined under a wavelength of 570 nm with a microplate reader, according to which the results were calculated.
(§7) The cellular proliferation inhibition rate was calculated in accordance with the following equation: Inhibition rate (%) = (OD valuecontrol well-OD valuesample well)/OD valuecontrol well × 100% [formula]
(§8) When the inhibition rate of DMSO on cells was more than 15%, calculation was carried out using the following equation: Inhibition rate (%) = (OD valuesolvent group-OD valueadministered well)/OD valuesolvent group × 100% [formula]
(§9) The inhibition rate was calculated by using Microsoft Excel 2003, and median inhibitory concentration IC50 was calculated with a LOGIT method, which was used as an indicator for judging the inhibitory capability.

[2] = system: 7 human tumor cell lines; test: modified MTT method, summary over the panel of human tumor cell lines; conditions: HL-60, K562, A549, HT-29, PC-3, MKN-28, Hep2
Source text: as §4, §5
Cells in logarithmic growth phase were taken, adjusted to a certain concentration and then added into a 96 well culture plate. After culture of adherent cells for a period until adherence, the test samples were added; and for suspension cells, the test samples were added after inoculation. […] After dissolving in uniformity, it was continued to be placed in the incubator at 37°C, 5% CO2 for a period of time, and the OD value of each well was determined under a wavelength of 570 nm with a microplate reader, according to which the results were calculated.
as §9

[3] = system: PC-3 cells; test: modified MTT method, proliferation of PC-3 cells; conditions: Homo sapiens, read-out: IC50 on the growth of PC-3 cells
Protocol: as §1, §2, §3, §4, §5, §6, §7, §8, §9

[4] = system: HL-60 cells; test: modified MTT method, proliferation of HL-60 cells; conditions: Homo sapiens, read-out: IC50 on the growth of HL-60 cells
Protocol: as §1, §2, §3, §4, §5, §6, §7, §8, §9

[5] = system: HT-29 cells; test: modified MTT method, proliferation of HT-29 cells; conditions: Homo sapiens
Protocol: as §1, §2, §3, §4, §5, §6, §7, §8, §9
(§10) According to the results of preliminary screening, further experiments were adjusted such that more sensitive cell lines were screened out. […]

[6] = system: K562 cells; test: modified MTT method, proliferation of K562 cells; conditions: Homo sapiens, read-out: IC50 on the growth of K562 cells
Protocol: as §1, §2, §3, §4, §5, §6, §7, §8, §9

[7] = system: Hep2 cells; test: modified MTT method, proliferation of Hep2 cells; conditions: Homo sapiens, HEp-2, 72 h, secondary screening
Protocol: as §1, §2, §3, §4, §5, §6, §7, §8, §9, §10

[8] = system: MKN-28 cells; test: modified MTT method, proliferation of MKN-28 cells; conditions: Homo sapiens, MKN-28, 72 h, secondary screening
Protocol: as §1, §2, §3, §4, §5, §6, §7, §8, §9, §10

Structure (SMILES): C[C@@H]1CC[C@H]2[C@@H](C)C(=O)O[C@@H]3O[C@@]4(C)CC[C@@H]1[C@]32OO4 [artemisinin]
- IC50 ([1]; A549, 24 h, Batch 1, 24 h): > 1 mM
- IC50 ([1]; A549, 24 h, Batch 2, 24 h): 0.421 mM
- IC50 ([1]; A549, 48 h, Batch 1, 48 h): > 1 mM
- IC50 ([1]; A549, 48 h, Batch 2, 48 h): > 1 mM
- IC50 ([1]; A549, 72 h, Batch 1, 72 h): > 1 mM
- IC50 ([1]; A549, 72 h, Batch 2, 72 h): > 1 mM
- inhibitory effect on the 7 human tumor cell lines in vitro [2]: no apparent inhibitory effect
- IC50 ([3]; PC-3, 24 h, Batch 1, 24 h): > 1 mM
- IC50 ([3]; PC-3, 24 h, Batch 2, 24 h): > 1 mM
- IC50 ([3]; PC-3, 48 h, Batch 1, 48 h): > 1 mM
- IC50 ([3]; PC-3, 48 h, Batch 2, 48 h): > 1 mM
- IC50 ([3]; PC-3, 72 h, Batch 1, 72 h): > 1 mM
- IC50 ([3]; PC-3, 72 h, Batch 2, 72 h): > 1 mM
- IC50 ([4]; HL-60, 24 h, Batch 1, 24 h): > 1 mM
- IC50 ([4]; HL-60, 24 h, Batch 2, 24 h): 0.75 mM
- IC50 ([4]; HL-60, 48 h, Batch 1, 48 h): > 1 mM
- IC50 ([4]; HL-60, 48 h, Batch 2, 48 h): 0.331 mM
- IC50 ([4]; HL-60, 72 h, Batch 1, 72 h): > 1 mM
- IC50 ([4]; HL-60, 72 h, Batch 2, 72 h): 0.577 mM
- IC50 ([5]; HT-29, 24 h, preliminary screening, Batch 1, 24 h, read-out: IC50 on the growth of HT-29 cells): > 1 mM
- IC50 ([5]; HT-29, 24 h, preliminary screening, Batch 2, 24 h, read-out: IC50 on the growth of HT-29 cells): > 1 mM
- IC50 ([5]; HT-29, 48 h, preliminary screening, Batch 1, 48 h, read-out: IC50 on the growth of HT-29 cells): > 1 mM
- IC50 ([5]; HT-29, 48 h, preliminary screening, Batch 2, 48 h, read-out: IC50 on the growth of HT-29 cells): > 1 mM
- IC50 ([5]; HT-29, 72 h, preliminary screening, Batch 1, 72 h, read-out: IC50 on the growth of HT-29 cells): > 1 mM
- IC50 ([5]; HT-29, 72 h, preliminary screening, Batch 2, 72 h, read-out: IC50 on the growth of HT-29 cells): > 1 mM
- IC50 ([5]; HT-29, 72 h, secondary screening, 72 h, Batch 1, read-out: IC50 on the growth of HT-29 cells (72 h)): 2.35 mM
- IC50 ([5]; HT-29, 72 h, secondary screening, 72 h, Batch 2, read-out: IC50 on the growth of HT-29 cells (72 h)): 0.773 mM
- IC50 ([5]; HT-29, 72 h, secondary screening, 72 h, Batch 3, read-out: IC50 on the growth of HT-29 cells (72 h)): 0.437 mM
- IC50 ([5]; HT-29, 72 h, secondary screening, 72 h, average, read-out: IC50 on the growth of HT-29 cells (72 h)): 0.545 mM
- IC50 ([6]; K562, 24 h, Batch 1, 24 h): > 1 mM
- IC50 ([6]; K562, 24 h, Batch 2, 24 h): > 1 mM
- IC50 ([6]; K562, 24 h, Batch 3, 24 h): > 1 mM
- IC50 ([6]; K562, 48 h, Batch 1, 48 h): > 1 mM
- IC50 ([6]; K562, 48 h, Batch 2, 48 h): > 1 mM
- IC50 ([6]; K562, 48 h, Batch 3, 48 h): 0.991 mM
- IC50 ([6]; K562, 72 h, Batch 1, 72 h): > 1 mM
- IC50 ([6]; K562, 72 h, Batch 2, 72 h): 0.518 mM
- IC50 ([6]; K562, 72 h, Batch 3, 72 h): 0.449 mM
- IC50 ([7]; Batch 1, read-out: IC50 on the growth of Hep2 cells (72 h)): 0.35 mM
- IC50 ([7]; Batch 2, read-out: IC50 on the growth of Hep2 cells (72 h)): 0.271 mM
- IC50 ([7]; Batch 3, read-out: IC50 on the growth of Hep2 cells (72 h)): > 1 mM
- IC50 ([7]; average, read-out: IC50 on the growth of Hep2 cells (72 h)): 0.952 mM
- IC50 ([8]; Average, read-out: IC50 on the growth of MKN-28 cells (72 h)): 0.97 mM
- IC50 ([8]; Batch 1, read-out: IC50 on the growth of MKN-28 cells (72 h)): 0.588 mM
- IC50 ([8]; Batch 2, read-out: IC50 on the growth of MKN-28 cells (72 h)): 1.44 mM
- IC50 ([8]; Batch 3, read-out: IC50 on the growth of MKN-28 cells (72 h)): 1.61 mM
